What was measured:
human TLR7 = biological target: T1, human TLR7 (Homo sapiens, UniProt Q9NYK1); experiment: HEK-Blue human TLR7 cells, NF-κB SEAP reporter assay; assay type: cell-based; conditions: stimulation for 20 hours, SEAP reporter read at 640 nm
T1 construct: host or cells: HEK-Blue human TLR7 cells (HEK293-derived; own knowledge: stably transfected with the human TLR7 gene)
T1 sequence (Q9NYK1 27-1049): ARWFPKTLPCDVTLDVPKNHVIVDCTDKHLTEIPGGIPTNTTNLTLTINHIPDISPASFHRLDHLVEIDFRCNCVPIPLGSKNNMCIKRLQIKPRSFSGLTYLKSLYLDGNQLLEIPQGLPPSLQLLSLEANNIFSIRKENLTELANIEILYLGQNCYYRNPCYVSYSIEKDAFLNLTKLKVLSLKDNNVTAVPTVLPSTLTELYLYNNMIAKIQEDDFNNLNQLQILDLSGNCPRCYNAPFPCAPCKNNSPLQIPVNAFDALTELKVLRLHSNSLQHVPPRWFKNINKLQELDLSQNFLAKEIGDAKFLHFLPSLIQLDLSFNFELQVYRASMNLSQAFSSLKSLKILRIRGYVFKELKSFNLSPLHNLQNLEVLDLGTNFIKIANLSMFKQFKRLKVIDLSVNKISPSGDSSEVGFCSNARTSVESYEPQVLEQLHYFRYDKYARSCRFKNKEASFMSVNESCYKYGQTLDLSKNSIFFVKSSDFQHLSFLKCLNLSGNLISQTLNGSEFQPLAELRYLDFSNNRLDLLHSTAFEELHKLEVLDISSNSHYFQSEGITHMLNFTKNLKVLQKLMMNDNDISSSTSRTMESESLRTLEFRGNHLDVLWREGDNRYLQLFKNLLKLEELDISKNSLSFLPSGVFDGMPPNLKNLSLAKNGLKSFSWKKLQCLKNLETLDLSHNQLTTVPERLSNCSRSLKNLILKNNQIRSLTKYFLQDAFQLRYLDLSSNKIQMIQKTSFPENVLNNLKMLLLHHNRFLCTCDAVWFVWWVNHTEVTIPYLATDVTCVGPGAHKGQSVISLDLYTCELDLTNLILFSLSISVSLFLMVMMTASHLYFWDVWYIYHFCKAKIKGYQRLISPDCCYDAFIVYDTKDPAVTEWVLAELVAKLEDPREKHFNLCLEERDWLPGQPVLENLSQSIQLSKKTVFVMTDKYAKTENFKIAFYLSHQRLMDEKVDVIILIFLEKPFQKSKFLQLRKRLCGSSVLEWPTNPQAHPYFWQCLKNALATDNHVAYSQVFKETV
Excerpt: (§1) For TLR8 and TLR7 activity testing, HEK-Blue human TLR8 or TLR7 cells (Invivogen, San Diego, Calif., USA) are used, respectively. These cells are designed for studying the stimulation of human TLR8 or TLR7 by monitoring the activation of NF-κB. A SEAP (secreted embryonic alkaline phosphatase) reporter gene is placed under the control of the IFN-b minimal promoter fused to five NF-κB and AP-1-binding sites. Therefore the reporter expression is regulated by the NF-κB promoter upon stimulation of human TLR8 or TLR7 for 20 hours. The cell culture supernatant SEAP reporter activity was determined using Quanti Blue kit (Invivogen, San Diego, Ca, USA) at a wavelength of 640 nm, a detection medium that turns purple/blue in the presence of alkaline phosphatase.

human TLR8 = biological target: T2, human TLR8 (Homo sapiens, UniProt Q9NR97); experiment: HEK-Blue human TLR8 cells, NF-κB SEAP reporter assay; assay type: cell-based; conditions: stimulation for 20 hours, SEAP reporter read at 640 nm
T2 construct: host or cells: HEK-Blue human TLR8 cells (HEK293-derived; own knowledge: stably transfected with the human TLR8 gene)
T2 sequence (Q9NR97 27-1041): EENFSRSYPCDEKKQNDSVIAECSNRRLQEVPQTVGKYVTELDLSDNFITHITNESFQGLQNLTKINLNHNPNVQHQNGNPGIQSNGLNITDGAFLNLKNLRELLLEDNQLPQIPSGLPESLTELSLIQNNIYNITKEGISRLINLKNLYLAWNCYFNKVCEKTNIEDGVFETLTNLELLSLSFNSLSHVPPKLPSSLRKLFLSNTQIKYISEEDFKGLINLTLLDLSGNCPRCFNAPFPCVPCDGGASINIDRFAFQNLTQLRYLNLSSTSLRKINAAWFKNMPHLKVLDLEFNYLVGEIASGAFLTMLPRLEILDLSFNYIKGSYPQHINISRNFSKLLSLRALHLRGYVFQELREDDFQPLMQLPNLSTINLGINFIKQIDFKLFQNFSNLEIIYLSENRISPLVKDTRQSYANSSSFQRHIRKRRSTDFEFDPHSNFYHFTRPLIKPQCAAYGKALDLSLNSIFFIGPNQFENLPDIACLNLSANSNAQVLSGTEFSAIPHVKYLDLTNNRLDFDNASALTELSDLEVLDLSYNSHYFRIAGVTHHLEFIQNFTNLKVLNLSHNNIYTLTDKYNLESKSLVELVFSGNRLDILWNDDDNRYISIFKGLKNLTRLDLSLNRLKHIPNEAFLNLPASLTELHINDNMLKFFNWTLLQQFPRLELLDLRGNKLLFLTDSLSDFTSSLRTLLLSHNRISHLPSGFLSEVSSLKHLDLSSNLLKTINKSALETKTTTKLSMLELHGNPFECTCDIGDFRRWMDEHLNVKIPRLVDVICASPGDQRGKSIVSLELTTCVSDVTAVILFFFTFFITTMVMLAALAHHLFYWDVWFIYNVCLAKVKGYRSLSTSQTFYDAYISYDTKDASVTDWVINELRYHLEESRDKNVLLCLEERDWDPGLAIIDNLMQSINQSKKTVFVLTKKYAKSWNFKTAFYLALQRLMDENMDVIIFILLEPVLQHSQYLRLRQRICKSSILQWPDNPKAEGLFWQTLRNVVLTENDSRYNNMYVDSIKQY
Excerpt: as §1

## CCCN(CCC)C(=O)C1=Cc2ccc(-c3ccc(S(C)(=N)=O)cc3)cc2N=C(N)C1 (stereo not shown) [Example 2, 2-Amino-8-[4-(methylsulfonimidoyl)phenyl]-N,N-dipropyl-3H-1-benzazepine-4-carboxamide]
Human TLR7
  EC50: 25 µM
Human TLR8
  EC50: 0.025 µM

## CCCN(CCC)C(=O)C1=Cc2ccc(-c3ccc(S(=N)(=O)CC)cc3)cc2N=C(N)C1 (stereo not shown) [Example 9, 2-Amino-8-[4-(ethylsulfonimidoyl)phenyl]-N,N-dipropyl-3H-1-benzazepine-4-carboxamide]
Human TLR7
  EC50: 32 µM
Human TLR8
  EC50: 0.025 µM

## CCCN(CCC)C(=O)C1=Cc2ccc(-c3cccc([S+]([O-])CC)c3)cc2N=C(N)C1 (stereo not shown) [Example 10, 2-Amino-8-(3-ethylsulfinylphenyl)-N,N-dipropyl-3H-1-benzazepine-4-carboxamide]
Human TLR7
  EC50: 16 µM
Human TLR8
  EC50: 0.008 µM

## CCCN(CCC)C(=O)C1=Cc2ccc(-c3ccc([S+](C)[O-])cc3)cc2N=C(N)C1 (stereo not shown) [Example 1, 2-Amino-8-(4-methylsulfinylphenyl)-N,N-dipropyl-3H-1-benzazepine-4-carboxamide]
Human TLR7
  EC50: 19 µM
Human TLR8
  EC50: 0.026 µM

## CCCN(CCC)C(=O)C1=Cc2ccc(-c3ccc([S+]([O-])CC)cc3)cc2N=C(N)C1 (stereo not shown) [Example 8, 2-Amino-8-(4-ethylsulfinylphenyl)-N,N-dipropyl-3H-1-benzazepine-4-carboxamide]
Human TLR7
  EC50: 23 µM
Human TLR8
  EC50: 0.021 µM

## CCCN(CCC)C(=O)C1=Cc2ccc(-c3cccc(S(C)(=O)=NCCOCCO)c3)cc2N=C(N)C1 (stereo not shown) [Example 3, 2-Amino-8-[3-[N-[2-(2-hydroxyethoxy)ethyl]-S-methyl-sulfonimidoyl]phenyl]-N,N-dipropyl-3H-1-benzazepine-4-carboxamide]
Human TLR7
  EC50: 55 µM
Human TLR8
  EC50: 0.011 µM

## CCCN(CCC)C(=O)C1=Cc2ccc(-c3cncc([S+](C)[O-])c3)cc2N=C(N)C1 (stereo not shown) [Example 4, 2-Amino-8-(5-methylsulfinyl-3-pyridyl)-N,N-dipropyl-3H-1-benzazepine-4-carboxamide]
Human TLR7
  EC50: 2.4 µM
Human TLR8
  EC50: 0.008 µM

## CCCN(CCC)C(=O)C1=Cc2ccc(-c3cncc(S(C)(=N)=O)c3)cc2N=C(N)C1 (stereo not shown) [Example 6, 2-Amino-8-[5-(methylsulfonimidoyl)-3-pyridyl]-N,N-dipropyl-3H-1-benzazepine-4-carboxamide]
Human TLR7
  EC50: 14.8 µM
Human TLR8
  EC50: 0.028 µM

## CCCN(CCC)C(=O)C1=Cc2ccc(-c3cccc(S(C)(=N)=O)c3)cc2N=C(N)C1 (stereo not shown) [Example 7, 22-Amino-8-[3-(methylsulfonimidoyl)phenyl]-N,N-dipropyl-3H-1-benzazepine-4-carboxamide]
Human TLR7
  EC50: 15.4 µM
Human TLR8
  EC50: 0.013 µM

## CCCN(CCC)C(=O)C1=Cc2ccc(-c3cccc([S+](C)[O-])c3)cc2N=C(N)C1 (stereo not shown) [Example 5, 2-Amino-8-(3-methylsulfinylphenyl)-N,N-dipropyl-3H-1-benzazepine-4-carboxamide]
Human TLR7
  EC50: 12.1 µM
Human TLR8
  EC50: 0.004 µM

## CCCN(CCC)C(=O)C1=Cc2ccc(-c3cccc(S(=N)(=O)CC)c3)cc2N=C(N)C1 (stereo not shown) [Example 11, 2-Amino-8-[3-(ethylsulfonimidoyl)phenyl]-N,N-dipropyl-3H-1-benzazepine-4-carboxamide]
Human TLR7
  EC50: 39 µM
Human TLR8
  EC50: 0.015 µM

Source: US10428027B2, “Sulfinylphenyl or sulfonimidoylphenyl benzazepines” (Hoffmann La-Roche Inc., priority 2015, dated 2019)
